Test results from patent US8598114B2, “Antimicrobial compounds” (priority 2007, dated 2013).
“And” between values parts separate entries of the source, which are not always exact repeats. Equal entries are not always repeated.

Key:
[1] = system: Streptococcus oralis; assay: MIC, CLSI microbroth dilution (aerobic bacteria); format: cell-based; design: unit not given beside the values
Text: (§1) Cation-adjusted Mueller-Hinton broth (Oxoid Ltd., Basingstoke, UK and Trek Diagnostic Systems Ltd., East Grinstead, UK) (supplemented with 5% laked horse blood for Streptococcus spp., Corynebacterium jeikeium and Listeria monocytogenes) was used for aerobic bacteria, with an initial inoculum of approximately 10^5 colony-forming units (CFU)/mL.

[2] = system: Streptococcus pneumoniae; assay: MIC, CLSI microbroth dilution (aerobic bacteria); format: cell-based; design: unit not given beside the values
Text: as §1

[3] = system: Group C Streptococcus; assay: MIC, CLSI microbroth dilution (aerobic bacteria); format: cell-based; design: unit not given beside the values
Text: as §1

[4] = system: Staphylococcus saprophyticus; assay: MIC, CLSI microbroth dilution (aerobic bacteria); format: cell-based; design: unit not given beside the values; details: Staphylococcus saprophyticus - antibiotic susceptible clinical isolate
Text: as §1

[5] = system: Moraxella catarrhalis; assay: MIC, CLSI microbroth dilution (aerobic bacteria); format: cell-based; design: unit not given beside the values
Text: as §1

[6] = system: Klebsiella aerogenes; assay: MIC, CLSI microbroth dilution (aerobic bacteria); format: cell-based; design: unit not given beside the values
Text: as §1

[7] = system: Streptococcus constellatus; assay: MIC, CLSI microbroth dilution (aerobic bacteria); format: cell-based; design: unit not given beside the values
Text: as §1

[8] = system: Staphylococcus epidermidis; assay: MIC, CLSI microbroth dilution (aerobic bacteria); format: cell-based; design: unit not given beside the values
Text: as §1

[9] = system: Shigella sp; assay: MIC, CLSI microbroth dilution (aerobic bacteria); format: cell-based; design: unit not given beside the values; details: Shigella sp - antibiotic-susceptible clinical isolate
Text: as §1

[10] = system: Salmonella sp; assay: MIC, CLSI microbroth dilution (aerobic bacteria); format: cell-based; design: unit not given beside the values
Text: as §1

[11] = system: Enterobacter sp; assay: MIC, CLSI microbroth dilution (aerobic bacteria); format: cell-based; design: unit not given beside the values
Text: as §1

[12] = system: Streptococcus agalactiae; assay: MIC, CLSI microbroth dilution (aerobic bacteria); format: cell-based; design: unit not given beside the values
Text: as §1

[13] = system: Streptococcus sanguis; assay: MIC, CLSI microbroth dilution (aerobic bacteria); format: cell-based; design: unit not given beside the values
Text: as §1

[14] = system: Escherichia coli; assay: MIC, CLSI microbroth dilution (aerobic bacteria); format: cell-based; design: unit not given beside the values
Text: as §1
(§2) To evaluate whether freezing affected the activity of the peptides some MIC determinations were repeated using plates containing freshly-prepared Mueller-Hinton broth.

[15] = system: Pseudomonas aeruginosa; assay: MIC, CLSI microbroth dilution (aerobic bacteria); format: cell-based; design: unit not given beside the values
Text: as §1, §2

[16] = system: Enterococcus faecalis; assay: MIC, CLSI microbroth dilution (aerobic bacteria); format: cell-based; design: unit not given beside the values
Text: as §1, §2

[17] = system: trypsin; assay: in vitro; format: in vitro ADME; details: pH 8.6
Experimental: Measurements and Calculation of Peptide Half-Life
Each peptide was dissolved in a 0.1 M NH4HCO3 buffer (pH 6.5) to yield a final peptide concentration of 1 mg/ml. A trypsin solution was prepared by dissolving 1 mg of trypsin in 50 ml 0.1 M NH4HCO3 buffer (pH 8.2). For the stability determination, 250 μl freshly made trypsin solution and 250 μl peptide solution were incubated in 2 ml of 0.1 M NH4HCO3 buffer (pH 8.6) at 37° C. on a rocking table. Aliquots of 0.5 ml were sampled at different time intervals, diluted with 0.5 ml water:acetonitrile (60:40 v/v) containing 1% TFA and analysed by RP-HPLC as described above. Samples without trypsin addition taken at 0 h and after 20 h at 37° C. were used as negative controls. Integration of the peak area at 254 nm for samples taken during the first 5 hours of the assay was used to generate the τ1/2.

[18] = system: Corynebacterium jeikeium; assay: MIC, CLSI microbroth dilution (aerobic bacteria); format: cell-based
Text: as §1

[19] = system: Acinetobacter baumanii; assay: MIC, CLSI microbroth dilution (aerobic bacteria); format: cell-based; details: Acinetobacter baumanii - antibiotic-susceptible clinical isolate
Text: as §1

[20] = system: Enterococcus faecium; assay: MIC, CLSI microbroth dilution (aerobic bacteria); format: cell-based
Text: as §1

[21] = system: Enterococcus gallinarum; assay: MIC, CLSI microbroth dilution (aerobic bacteria); format: cell-based; details: Enterococcus gallinarum vancomycin-resistant (VanC) clinical isolate
Text: as §1

[22] = system: Staphylococcus haemolyticus; assay: MIC, CLSI microbroth dilution (aerobic bacteria); format: cell-based; details: Staphylococcus haemolyticus - antibiotic susceptible clinical isolate
Text: as §1

[23] = system: Clostridium perfringens; format: cell-based; details: Clostridium perfringens - antibiotic-susceptible clinical isolate
[24] = system: Staphylococcus aureus; assay: MIC, CLSI microbroth dilution (aerobic bacteria); format: cell-based; design: unit not given here
Text: as §1, §2

N=C(N)NCCCC(N)C(=O)NC(Cc1ccc(-c2ccc3ccccc3c2)cc1)C(=O)NC(CCCNC(=N)N)C(=O)NCCc1ccccc1 (stereo not shown) [Compound 1] was tested, and the MIC ([1]; Streptococcus oralis - antibiotic-susceptible clinical isolate) was 64, the MIC ([1]; Streptococcus oralis - macrolide-resistant clinical isolate) was 32 and the MIC ([2]; Streptococcus pneumoniae - ATCC 49619 antibiotic-susceptible control) was 32. The MIC ([2]; Streptococcus pneumoniae - multi-drug resistant clinical isolate) was 64, the MIC ([2]; Streptococcus pneumoniae - penicillin-resistant clinical isolate) was 32 and the MIC ([2]; Streptococcus pneumoniae - penicillin-susceptible clinical isolate) was 64. It also gave an MIC ([2]; Streptococcus pneumoniae -penicillin-intermediate clinical isolate) of 32, an MIC ([3]; Group C Streptococcus - antibiotic-susceptible clinical isolate) of 32 and an MIC ([3]; Group C Streptococcus - macrolide-resistant clinical isolate) of 64. For the same molecule, the MIC [4] was 1, the MIC ([5]; Moraxella catarrhalis - reduced fluoroquinolone susceptibility clinical) was 8 and the MIC ([5]; Moraxella catarrhalis - β-lactamase positive clinical isolate) was 4. The MIC ([6]; Klebsiella aerogenes - multi-drug resistant clinical isolate) was 64, the MIC ([6]; Klebsiella aerogenes NCTC11228 - antibiotic-susceptible type strain) was 32 and the MIC ([7]; Streptococcus constellatus - antibiotic-susceptible clinical isolate) was 64. For the same molecule, the MIC ([7]; Streptococcus constellatus - macrolide-resistant clinical isolate) was 64, the MIC ([8]; Staphylococcus epidermidis antibiotic susceptible clinical isolate) was 16 and the MIC ([8]; Staphylococcus epidermidis methicillin-resistant clinical isolate) was 2. For the same molecule, the MIC [9] was 32, the MIC ([10]; Salmonella sp - antibiotic-susceptible clinical isolate) was 16 and the MIC ([10]; Salmonella sp - multi-drug resistant clinical isolate) was 16. The MIC ([11]; Enterobacter sp - antibiotic-susceptible clinical isolate) was 32, the MIC ([11]; Enterobacter sp - multi-drug resistant clinical isolate) was 64 and the MIC ([12]; Streptococcus agalactiae - antibiotic-susceptible clinical isolate) was 16. For the same molecule, the MIC ([12]; Streptococcus agalactiae - macrolide-resistant clinical isolate) was 32, the MIC ([13]; Streptococcus sanguis - antibiotic-susceptible clinical isolate) was 64 and the MIC ([13]; Streptococcus sanguis - macrolide-resistant clinical isolate) was 32. It also gave an MIC ([14]; Escherichia coli - multi-drug resistant clinical isolate) of 32, an MIC ([14]; Escherichia coli ATCC25922 - antibiotic-susceptible type strain) of 32 and an MIC ([14]; Escherichia coli ATCC32518 - β-lactamase positive type strain) of 32. It also gave an MIC ([14]; GN01 Escherichia coli ATCC 25922 type strain, repeat results (Table 2), Fresh MHB) of 16, an MIC ([14]; GN01 Escherichia coli ATCC 25922 type strain, repeat results (Table 2), Frozen MHB) of 32 and an MIC ([15]; GN10 Pseudomonas aeruginosa ATCC 27853 type strain, repeat results (Table 2), Fresh MHB) of 8. For the same molecule, the MIC ([15]; GN10 Pseudomonas aeruginosa ATCC 27853 type strain, repeat results (Table 2), Frozen MHB) was 16 and 32, the MIC ([15]; Pseudomonas aeruginosa - multi-drug resistant clinical isolate) was 32 and the MIC ([15]; Pseudomonas aeruginosa ATCC27853 - antibiotic-susceptible type) was 16. For the same molecule, the MIC ([16]; Enterococcus faecalis - ATCC 29212 antibiotic-susceptible control (Table 1)) was 4, the MIC ([16]; Enterococcus faecalis high-level gentamicin-resistant clinical isolate) was 16 and the MIC ([16]; Enterococcus faecalis vancomycin-resistant (VanA) clinical isolate) was 16. It also gave an MIC ([16]; Enterococcus faecalis vancomycin-resistant (VanB) clinical isolate) of 16, an MIC ([16]; Enterococcus faecalis vancomycin-susceptible clinical isolate) of 8 and an MIC ([16]; GP11 Enterococcus faecalis - ATCC 29212 control strain, repeat results (Table 2), Fresh MHB) of 4. The MIC ([16]; GP11 Enterococcus faecalis - ATCC 29212 control strain, repeat results (Table 2), Frozen MHB) was 8, the half-life at 0.1 mg/ml [17] was over 24 h and the MIC ([18]; Corynebacterium jeikeium - antibiotic-susceptible clinical isolate) was 32. For the same molecule, the MIC ([18]; Corynebacterium jeikeium - multi-drug resistant clinical isolate) was 32, the MIC [19] was 64 and the MIC ([20]; Enterococcus faecium vancomycin-resistant (VanA) clinical isolate) was 16. It also gave an MIC ([20]; Enterococcus faecium vancomycin-resistant (VanB) clinical isolate) of 8, an MIC ([20]; Enterococcus faecium vancomycin-susceptible clinical isolate) of 8 and an MIC [21] of 4. The MIC [22] was 4, the MIC [23] was “≧128” and the MIC ([24]; EMRSA1 Staphylococcus aureus (MRSA) - SSCmec type 3) was 8. It also gave an MIC ([24]; EMRSA3 Staphylococcus aureus (MRSA) - SSCmec type 1) of 4, an MIC ([24]; EMRSA15 Staphylococcus aureus (MRSA) - SSCmec type 4) of 4 and an MIC ([24]; EMRSA16 Staphylococcus aureus (MRSA) - SSCmec type 2) of 4. For the same molecule, the MIC ([24]; GP01 Staphylococcus aureus ATCC 29213 control strain, repeat results (Table 2), Fresh MHB) was 4, the MIC ([24]; GP01 Staphylococcus aureus ATCC 29213 control strain, repeat results (Table 2), Frozen MHB) was 8 and 4 and the MIC ([24]; HT2001254 Staphylococcus aureus (MRSA) - PVL positive) was 4. The MIC ([24]; MU50 Staphylococcus aureus (MRSA) - VISA type strain) was 4, the MIC ([24]; Staphylococcus aureus - methicillin-resistant clinical isolate) was 4 and the MIC ([24]; Staphylococcus aureus - multi-drug-resistant clinical isolate) was 8. The MIC ([24]; Staphylococcus aureus - teicoplanin-intermediate clinical isolate) was 4, the MIC ([24]; Staphylococcus aureus ATCC 25923 - antibiotic-susceptible control) was 4 and the MIC ([24]; Staphylococcus aureus ATCC 29213 - antibiotic-susceptible control (Table 1)) was 4. For the same molecule, the MIC ([24]; Staphylococcus aureus ATCC 43300 - methicillin-resistant control strain) was 4.
